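Interpolation was linear, between the two tested concentrations surrounding the appropriate level; five concentrations were tested over 48 hours in 96-well plates. At the GI50, growth is halved. The concentration for full growth arrest is given as TGI.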
How the values were obtained:
Assay in all cases: NCI anticancer screen, dose series, 48 h
[1] = tested on: MDA-N
[2] = tested on: DMS 273 small cell lung
[3] = tested on: RXF-631 renal
[4] = tested on: SNB-78 CNS
[5] = tested on: M19-MEL melanoma
[6] = tested on: XF 498 CNS
[7] = tested on: LXFL 529 NSCLC
[8] = tested on: DMS 114 small cell lung
[9] = tested on: HOP-18 NSCLC

Row | Structure (SMILES) | TGI [1] [µM] | TGI [2] [µM] | TGI [3] [µM] | TGI [4] [µM] | TGI [5] [µM] | TGI [6] [µM] | TGI [7] [µM] | TGI [8] [µM] | TGI [9] [µM] | other results
1 | O=C1NC(=O)C(CC2CCCCCCCCCCC2=O)C(=O)N1 (stereo not given) | > 100 |  |  |  |  |  |  |  |  | 
2 | C/C(CC(=O)NCCc1ccccc1)=N\NC(=O)C[n+]1ccccc1 |  | > 100 | > 100 | > 100 | > 100 | > 100 | > 100 | > 100 |  | 
3 | O=c1c2cc(Br)cc(Br)c2nc(CCCl)n1CCO |  |  | > 100 | > 100 | > 100 | > 100 | > 100 | > 100 |  | 
4 | C=C1C(=O)OC2/C=C(\COC(C)=O)CCC(OC(C)=O)C3=CC(OC3=O)C12 (stereo not given) |  | 21.7 | 48 | 9.55 |  | 5.33 | 3.56 | 3.18 |  | 
5 | ClCC[N+]12CC[N+](CCCl)(CC1)C2 | > 100 |  |  |  |  |  |  |  |  | 
6 | C1C[OH+]CC[OH+]CC[OH+]CC[OH+]CC[OH+]1.[Cl-].[V] |  | > 100 |  |  |  |  | > 100 | > 100 | > 100 | GI50 [2]: 53 µM; GI50 [9]: 60.6 µM; GI50 [7]: > 100 µM; GI50 [8]: > 100 µM
7 | CC1=C(O)C(=O)C=C2C1=CC=C1[C@@]2(C)CC[C@@]2(C)[C@@H]3C[C@](C)(C(=O)O)CC[C@]3(C)CC[C@]12C | 0.075 |  |  |  |  |  |  |  |  | 
8 | Clc1ccc(C=Nc2ccc3c(c2)Cc2ccccc2-3)c(Cl)c1 | > 100 |  |  |  |  |  |  |  |  | 
9 | COc1ccc(OC)c2c(C(=O)O)c(Cc3ccccc3)ccc12 |  | > 100 |  |  | > 100 | > 100 | > 100 | > 100 | > 100 | 
10 | Nc1nc(F)nc2c1ncn2C1OC(CO)C(O)C1O (stereo not given) | > 100 |  |  |  |  |  |  |  |  | 
11 | S=C1OC2CCCC[C@H]2O1 (stereo not given in full) |  | > 100 | > 100 | > 100 | > 100 | > 100 | > 100 | > 100 | > 100 | 
12 | O=C1CSC(/C(=N/Nc2ccccc2)c2nc3ccccc3[nH]2)=N1 |  | 47.3 |  | > 100 | > 100 | 73.4 | > 100 | > 100 |  | 
13 | c1ccc(C2Nc3ccccc3C3OCCCC23)cc1 (stereo not given) |  | 97.1 | > 100 | > 100 | > 100 | > 100 | > 100 | 62.4 |  | 
14 | CSC(C1c2ccccc2N(c2ccc(C)cc2)c2[nH]c(=O)n(C)c(=O)c21)S(=O)(=O)c1ccc(C)cc1 (stereo not given) |  | > 100 |  | > 100 | > 100 | > 100 | > 100 | > 100 |  | 
15 | CCCCCCCCCCCC(=O)OCC1OC(OC)C(NC(=O)N(CCCl)N=O)C(O)C1O (stereo not given) |  | 30.6 |  |  | > 100 | 27.6 | 26.4 | 39 | > 100 | 
16 | COc1cc(NC(C)CCCN)c2nccc(C)c2c1 (stereo not given) | 33.7 |  |  |  |  |  |  |  |  | 
17 | COc1ccc2nc(NC(=O)C(=O)C(C#N)c3ccc([N+](=O)[O-])cc3)sc2c1 (stereo not given) |  | > 100 |  | > 100 | > 100 |  | > 100 | > 100 | > 100 | 
18 | O=C1OC2CCCC[C@@H]2C2C[C@]34CCCCC3[C@@H](C(=O)O4)C12 (stereo not given in full) |  |  |  | > 100 | > 100 | > 100 | > 100 | > 100 | > 100 | 
19 | COc1c(CCl)cc(-c2cc(=O)c3ccccc3s2)cc1CCl | > 100 |  |  |  |  |  |  |  |  | 
20 | Nc1ccn(C2CCC(CO)O2)c(=O)n1 (stereo not given) | > 1000 |  |  | > 81.9 |  |  |  |  |  | 

Row | Structure (SMILES) | TGI [1] [µM] | TGI [2] [µM] | TGI [3] [µM] | TGI [4] [µM] | TGI [5] [µM] | TGI [6] [µM] | TGI [7] [µM] | TGI [8] [µM] | TGI [9] [µM] | other results
21 | CCN(CC)c1ccc(N=Nc2ccc(-c3nc4ccc[n+](C)c4s3)cc2)cc1 |  | 13.5 |  | 31.6 | 10.6 |  | 17.9 |  | 31.3 | 
22 | CC(C)(C)c1cc(C(O)(C(F)(F)F)C(F)(F)F)c2c(c1)C(C(F)(F)F)(C(F)(F)F)OC(C(C)(C)C)N2 (stereo not given) |  | 11.1 | 19 | 14.2 | 12.9 | 1.84 | 11.7 | 8.95 | 9.34 | 
23 | CCOC(=O)NC(=O)c1cn(CCCOC(=O)CCCCCCCCCCC(=O)OCCCn2cc(C(=O)NC(=O)OCC)c(=O)[nH]c2=O)c(=O)[nH]c1=O |  |  | > 100 | > 100 | > 100 | > 100 | > 100 |  | > 100 | 
24 | O=C1/C(=C/c2cccc([N+](=O)[O-])c2)COc2ccc(Br)cc21 |  | > 100 |  | > 100 | > 100 | > 100 | > 100 | > 100 | > 100 | 
25 | COc1cc(/C=C(\C#N)c2ccccc2)cc(OC)c1 |  |  |  | > 100 | > 100 | > 100 | > 100 | > 100 |  | 
26 | Clc1ccc2c(c1)-c1c3c(nn1-c1ccccc1)-c1ccccc1SC3O2 (stereo not given) |  | > 100 |  | > 100 | > 100 | > 100 | > 100 | > 100 | > 100 | 
27 | C=CC/C=C/C/C=C/CCCCCCCc1cccc(O)c1C(=O)O |  | > 100 | > 100 | > 100 | > 100 | > 100 | > 100 | > 100 | 65.3 | 
28 | CN(C)c1cc[c]([Sn]([c]2ccc(N(C)C)cc2)([c]2ccc(N(C)C)cc2)[c]2ccc(N(C)C)cc2)cc1 |  | 16.4 |  | 11.5 | 24.4 |  | 12.9 | 13.8 | 32.9 | GI50 [2]: 4.76 µM; GI50 [4]: 3.82 µM; GI50 [9]: 8.77 µM; GI50 [5]: 5.17 µM; GI50 [7]: 3.09 µM; GI50 [8]: 3.15 µM
29 | N#CC1CC2(C1)OCCS2 (stereo not given) |  | > 100 |  | > 100 |  |  | > 100 |  |  | 
30 | CCn1c(-c2ccc(OC(C)=O)cc2)c(C)c2cc(OC(C)=O)ccc21 | 77.9 |  |  |  |  |  |  |  |  | 
31 | C/C(N=NC(=S)N(C)C)=C1\C=CC=CN1O | > 100 | > 100 | > 100 | > 100 | > 100 |  | > 100 |  | > 100 | 
32 | O=C1[C@@H]2C(c3ccccc3F)=NO[C@@H]2C(=O)N1c1ccc(Cc2ccc(N3C(=O)[C@H]4C(c5ccccc5F)=NO[C@H]4C3=O)cc2)cc1 |  | > 100 | > 100 | > 100 | > 100 | > 100 | > 100 | > 100 | > 100 | 
33 | NC(=O)NCc1c(C(N)=O)ncn1Cc1ccccc1 |  | > 100 |  | > 100 | > 100 | > 100 | > 100 | > 100 | > 100 | 
34 | Cc1c(C(=O)/C=C/c2ccccc2)[n+](=O)c2ccccc2n1[O-] |  | 30.1 |  | > 100 | 30 | 24.6 | 26 | 22.2 | 57 | 
35 | O=C(c1ccccc1)C1OC12C(=O)Nc1ccccc12 (stereo not given) |  | > 100 | > 100 | > 100 | > 100 | > 100 | 30.3 | 88.8 |  | 
36 | O=C(Nc1c(Cl)cc([N+](=O)[O-])cc1Cl)C(=O)C(C1OC(=O)c2ccccc21)[N+](=O)[O-] (stereo not given) |  |  | > 100 | > 100 | > 100 | > 100 | > 100 | > 100 |  | 
37 | Br[C](Br)(Br)[Hg][c]1ccccc1 | 38.7 |  |  |  |  |  |  |  |  | GI50 [1]: 17.6 µM
38 | O=C1CC2c3ccccc3CCC2c2ccccc21 (stereo not given) | 21.4 |  |  |  |  |  |  |  |  | 
39 | C[C@]12CC[C@@H]3c4cc(OCC(F)(F)F)c(O)cc4/C(=N/O)C[C@H]3[C@@H]1CC[C@@H]2O | 1.06 |  |  |  |  |  |  |  |  | 

Reference: PubChem BioAssay (NCI)
